Test results published in paper PMC3134859, “Chemical Stability of New Acyclovir Analogues with Peptidomimetics” (Scientia Pharmaceutica, 2011).
“And” between values parts separate entries of the source, which are not always exact repeats. Equal entries are not always repeated. Where two headings read alike, the source gives them in different places.

Key:
[1] = cited from earlier work
[2] = cited from earlier work; remark: listed apart in the source
[3] = Chemical stability (hydrolysis) of acyclovir esters in aqueous buffer, unchanged ester quantified by HPLC; type: physicochemical; conditions: for pH=1, t½, h: pH 1.0 (0.1 M HCl); for pH=1, t½, h / pH=7.4, t½, h: 37°C, decomposition half-life; for chemical stability at pH 1 (in words): pH 1.0, 37°C, acidic conditions; for pH=7.4, t½, h: pH 7.4 (phosphate buffer); for chemical stability at pH 7.4 (in words): pH 7.4, 37°C
Protocol: It was established that, under the described experimental conditions, some esters underwent decomposition by hydrolysis. The hydrolysis followed apparent first order kinetics, and the rate constants (K) were obtained as slopes from the semi-logarithmic plots of the unchanged ester concentration versus time. The chemical stability was assessed by means of the decomposition half-lives: t1/2=ln2/K
Chromatography was carried out isocratically, on a modular KNAUER HPLC system (Germany), consisting of a Smartline Pump 1000, a Smartline Manager 5000 solvent degasser, an injector with a 20 μl loop and a Smartline UV Detector 2600 diode array. The analyses were controlled and the data were acquired with EuroChrom software. The mobile phase consisted of acetonitrile/water in a ratio of 30:70 or 50:50 v/v depending on the polarity of the compound and a flow rate 1 ml/min was used. The detection was performed at relevant λmax for the respective compound (range 252–262 nm).
A single chromatographic method was used to detect the studied acyclovir esters with thiazole rings containing amino acids (Gly, Ala, Val, Leu) in aqueous buffer solutions at pH 1.0 (0.1 M HCl) and pH 7.4 (phosphate buffer). Twenty microlitres of each sample were injected into a reverse phase HPLC C18 column. The mobile phase consisted of acetonitrile/water at a ratio of 30:70 or 50:50 v/v depending on the polarity of the compound. The analyses of the esters of acyclovir with amino acid (Gly, Ala, Val, Leu) containing thiazole rings were validated. The specificity of the method was investigated by observing potential interference between the esters of acyclovir and its parent drug, acyclovir. No interfering peaks were presented in the chromatograms. The linearity of the relationship between the peak area and concentration was determined by analysing six standard solutions in a concentration range of 0.1–1.0 mmol/l. For all analytes, the relationship between the peak area ratio of the drug to the internal standard and concentration was linear over the entire examined concentration range. The correlation coefficients of the calibration curves were greater than 0.997.
Hydrolysis of acyclovir esters with thiazole rings containing amino acids (Gly, Ala, Val, Leu) was studied at pH 1.0 (HCl) and pH 7.4 (phosphate buffered saline). Stock solutions of the prodrugs were prepared and used immediately for stability studies. Aliquots (9.8 ml) of the buffer were placed in a screw-capped vial and allowed equilibrate at 37°C. A prodrug stock solution (0.2 ml) was added to the buffer. The vial was placed in a constant shaker bath set at 37°C and 60 rpm. Each sample was directly analysed by HPLC.

HSV-2 = test system: HSV-2; set-up: method as in PMID 19400144; conditions: cited from earlier work
HSV-1 = test system: HSV-1; set-up: method as in PMID 19400144; conditions: cited from earlier work
[4] = cited from earlier work; remark: listed apart in the source

Structure (SMILES) | pH=1, t½, h [3] | chemical stability at pH 1 (in words) [3] | pH=7.4, t½, h [3] | chemical stability at pH 7.4 (in words) [3] | effect against HSV-2 (HSV-2) | also measured
Nc1nc2c(ncn2COCCO)c(=O)[nH]1 [ACV, 9-[(2-hydroxyethoxy)methyl]guanine] |  |  |  |  |  | bioavailability by oral administration [1]: 14%; aqueous solubility [2]: low aqueous solubility
CC(C)(C)OC(=O)NCc1nc(C(=O)OCCOCn2cnc3c(=O)[nH]c(N)nc32)cs1 [compound 1, Boc-2-aminomethyl-thiazole-acyclovir] | 1.1±0.1 h | less stable | 5.9±0.5 h | lower stability |  | chemical stability at pH 1 (in words) ([3]; listed as Gly-thiazole): rather unstable
CC(NC(=O)OC(C)(C)C)c1nc(C(=O)OCCOCn2cnc3c(=O)[nH]c(N)nc32)cs1 (stereo not drawn) [compound 2, Boc-2-Ala-thiazole-acyclovir] | 1.3±0.1 h | rather unstable | 7.8±0.5 h | satisfying chemical stability | appreciable effect | effect against HSV-2 (HSV-2; listed as Ala-thiazolyl ester of acyclovir): prominent activity
CC(C)C(NC(=O)OC(C)(C)C)c1nc(C(=O)OCCOCn2cnc3c(=O)[nH]c(N)nc32)cs1 (stereo not drawn) [compound 3, Boc-2-Val-thiazole-acyclovir] | 0.7±0.1 h | less stable | 17 h and 17.8±0.9 h | highest chemical stability | did not exhibit a satisfying effect | chemical stability at pH 7.4 (in words) ([3]; listed as Valthiazole-acyclovir): remarkable; effect against HSV-1 (HSV-1): did not exhibit a satisfying effect
CC(C)CC(NC(=O)OC(C)(C)C)c1nc(C(=O)OCCOCn2cnc3c(=O)[nH]c(N)nc32)cs1 (stereo not drawn) [compound 4, Boc-2-Leu-thiazole-acyclovir] | 2.6±0.2 h | rather unstable | 5.0±0.4 h | lower stability |  | 
CC(C)[C@H](N)C(=O)OCCOCn1cnc2c(=O)[nH]c(N)nc21 [valacyclovir] |  |  |  |  |  | bioavailability relative to acyclovir ([1]; oral administration): four-fold higher; t½ at pH 7.4 ([4]; pH 7.4, 37°C): 13 h; t½ at pH 7.4 ([4]; pH 7.4): 13 h
